Test results: publication PMC12292390, “Discovery of Dietary Plant Flavonols as Novel Potent Inhibitors Targeting DYRK1A Kinase” (Biomolecules, 2025)
Entries after “also recorded” stand apart in the source; their conditions may differ.

System: HeLa cells
Experiment: Cell morphology analysis (microscopy)
Assay type: cell-based
Conditions: 40 μM, 72 h, 4% methanol
Experimental: (§1) HeLa cells were maintained in high-glucose Dulbecco’s Modified Eagle Medium (DMEM) supplemented with 10% (v/v) fetal bovine serum (FBS) at 37 °C in an incubator with 5% CO2.
HeLa cells were seeded at a density of 1.5 × 10^5 per well in 6-well plates and incubated overnight. Cells were then treated with different concentrations of flavonoids for 72 h. The final concentrations of methanol and DMSO were 4% and 1%, respectively. Morphology changes were observed using an Olympus IX83 (Evident Scientific, Tokyo, Japan) inverted microscope with a 40× objective.

Row | SMILES | morphological changes in HeLa cells
1 | COc1cc(-c2oc3cc(O)cc(O)c3c(=O)c2O)ccc1O [Isorhamnetin] | clear apoptotic features, including cell shrinkage, detachment, and the formation of apoptosis bodies; also recorded: classic apoptosis features
2 | O=c1c(O)c(-c2ccc(O)cc2O)oc2cc(O)cc(O)c12 [Morin] | clear apoptotic features, including cell shrinkage, detachment, and the formation of apoptosis bodies; also recorded: classic apoptosis features
3 | O=c1c(O)c(-c2ccc(O)c(O)c2)oc2cc(O)ccc12 [Fisetin] | clear apoptotic features, including cell shrinkage, detachment, and the formation of apoptosis bodies; also recorded: classic apoptosis features

Same assay, conditions: 100 μM, 72 h, 1% DMSO

Row | SMILES | morphological changes in HeLa cells
4 | O=c1c(O)c(-c2ccc(O)cc2)oc2cc(O)cc(O)c12 [Kaempferol, 3,5,7,4′-tetrahydroxyflavone] | significant elongation and shrinkage; also recorded: elongated morphology

Molecular target: T1, DYRK1A (Homo sapiens, UniProt Q13627)
T1 construct: The DNA encoding DYRK1A with a non-cleavable N-terminal MBP-tag was synthesized by Genscript; made in house; host or cells: E. coli BL21 (DE3) RIPL
Experiment: DYRK1A kinase inhibition assay (ADP-Glo Kinase Assay, DYRKtide substrate);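 further: DYRKtide phosphorylation read out by luminescence, reaction run in Tris buffer pH 7.5 with MgCl2 and BSA, containing 1% DMSO or methanol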
Assay type: biochemical
Conditions: not given

Row | SMILES | IC50
5 | COc1cc(-c2oc3cc(O)cc(O)c3c(=O)c2O)ccc1O [Isorhamnetin] | 418 nM

Same assay, conditions: ADP-Glo; 100 μM ATP, 1 mg/mL DYRKtide, 30 nM DYRK1A, 1 h room temperature; read-out: IC50

Row | SMILES | IC50
6 | O=c1c(O)c(-c2ccc(O)c(O)c2)oc2cc(O)cc(O)c12 [Quercetin, reference compound] | 738 nM
7 | O=c1c(O)c(-c2cc(O)c(O)c(O)c2)oc2cc(O)cc(O)c12 [Myricetin] | 633 nM
8 | COc1ccc(-c2oc3cc(O)cc(O)c3c(=O)c2O)cc1 [Kaempferide] | 3520 nM
9 | O=c1cc(-c2ccc(O)c(O)c2)oc2cc(O)cc(O)c12 [Luteolin] | 798 nM
10 | O=c1cc(-c2ccc(O)cc2)oc2cc(O)cc(O)c12 [Apigenin] | 1020 nM
11 | O=c1c(O)c(-c2ccc(O)cc2O)oc2cc(O)cc(O)c12 [Morin] | 478 nM
12 | O=c1c(O)c(-c2ccc(O)c(O)c2)oc2cc(O)ccc12 [Fisetin] | 149 nM
13 | O=c1c(O)c(-c2ccc(O)cc2)oc2cc(O)cc(O)c12 [Kaempferol, 3,5,7,4′-tetrahydroxyflavone] | 296 nM

Same assay, conditions: at the concentrations tested

Row | SMILES | DYRK1A inhibition (in words)
14 | O=c1c(O)c(-c2ccccc2)oc2ccc(O)cc12 [3,6-Dihydroxyflavone] | only weak inhibition; also recorded: low inhibition of kinase
15 | COc1cc(-c2oc3cc(O)cc(O)c3c(=O)c2O)ccc1O [Isorhamnetin] | moderate activity
16 | O=c1c(O)c(-c2ccccc2)oc2ccccc12 [3-Hydroxyflavone] | no detectable activity; also recorded: low inhibition of kinase
17 | O=C1C[C@@H](c2ccc(O)cc2)Oc2cc(O)cc(O)c21 [Naringenin] | only weak inhibition
18 | COc1ccc(-c2oc3cc(O)cc(O)c3c(=O)c2O)cc1 [Kaempferide] | effective inhibition
19 | O=c1c(O)c(-c2ccccc2)oc2cc(O)ccc12 [3,7-Dihydroxyflavone] | only weak inhibition; also recorded: low inhibition of kinase
20 | O=c1cc(-c2ccc(O)cc2)oc2cc(O)cc(O)c12 [Apigenin] | effective inhibition
21 | O=c1c(O)c(-c2ccc(O)cc2)oc2cc(O)cc(O)c12 [Kaempferol, 3,5,7,4′-tetrahydroxyflavone] | moderate activity
22 | O=C1c2c(O)cc(O)cc2O[C@H](c2cc(O)c(O)c(O)c2)[C@H]1O [Dihydromyricetin] | no detectable activity; also recorded: lack of activity

Same assay, conditions: at the concentrations tested; listed as apigenin

Row | SMILES | DYRK1A inhibition (in words)
23 | O=c1cc(-c2ccc(O)cc2)oc2cc(O)cc(O)c12 [Apigenin] | only weak inhibition

Same assay, conditions: at the concentrations tested; listed as kaempferide

Row | SMILES | DYRK1A inhibition (in words)
24 | COc1ccc(-c2oc3cc(O)cc(O)c3c(=O)c2O)cc1 [Kaempferide] | only weak inhibition; also recorded: low inhibition of kinase

System: not given
Experiment: not given
Conditions: ACD/LogP; ref ChemSpider; cited from earlier work

Row | SMILES | LogP
25 | O=c1c(O)c(-c2ccccc2)oc2ccc(O)cc12 [3,6-Dihydroxyflavone] | 3.64
26 | O=c1c(O)c(-c2ccc(O)c(O)c2)oc2cc(O)cc(O)c12 [Quercetin, reference compound] | 2.08
27 | COc1cc(-c2oc3cc(O)cc(O)c3c(=O)c2O)ccc1O [Isorhamnetin] | 1.76
28 | O=c1c(O)c(-c2cc(O)c(O)c(O)c2)oc2cc(O)cc(O)c12 [Myricetin] | 2.11
29 | O=c1c(O)c(-c2ccccc2)oc2ccccc12 [3-Hydroxyflavone] | 3.76
30 | O=C1C[C@@H](c2ccc(O)cc2)Oc2cc(O)cc(O)c21 [Naringenin] | 3.19
31 | COc1ccc(-c2oc3cc(O)cc(O)c3c(=O)c2O)cc1 [Kaempferide] | 2.74
32 | O=c1c(O)c(-c2ccccc2)oc2cc(O)ccc12 [3,7-Dihydroxyflavone] | 3.27
33 | O=c1cc(-c2ccc(O)c(O)c2)oc2cc(O)cc(O)c12 [Luteolin] | 2.40
34 | O=c1cc(-c2ccc(O)cc2)oc2cc(O)cc(O)c12 [Apigenin] | 3.04
35 | O=c1c(O)c(-c2ccc(O)cc2O)oc2cc(O)cc(O)c12 [Morin] | 1.61
36 | O=c1c(O)c(-c2ccc(O)c(O)c2)oc2cc(O)ccc12 [Fisetin] | 2.52
37 | O=c1c(O)c(-c2ccc(O)cc2)oc2cc(O)cc(O)c12 [Kaempferol, 3,5,7,4′-tetrahydroxyflavone] | 2.05
38 | O=C1c2c(O)cc(O)cc2O[C@H](c2cc(O)c(O)c(O)c2)[C@H]1O [Dihydromyricetin] | 1.23

Same assay, conditions: first figure of HBA/HBD; ref ChemSpider; cited from earlier work

Row | SMILES | HBA (hydrogen bond acceptor number)
39 | O=c1c(O)c(-c2ccccc2)oc2ccc(O)cc12 [3,6-Dihydroxyflavone] | 4
40 | O=c1c(O)c(-c2ccc(O)c(O)c2)oc2cc(O)cc(O)c12 [Quercetin, reference compound] | 7
41 | COc1cc(-c2oc3cc(O)cc(O)c3c(=O)c2O)ccc1O [Isorhamnetin] | 7
42 | O=c1c(O)c(-c2cc(O)c(O)c(O)c2)oc2cc(O)cc(O)c12 [Myricetin] | 8
43 | O=c1c(O)c(-c2ccccc2)oc2ccccc12 [3-Hydroxyflavone] | 3
44 | O=C1C[C@@H](c2ccc(O)cc2)Oc2cc(O)cc(O)c21 [Naringenin] | 5
45 | COc1ccc(-c2oc3cc(O)cc(O)c3c(=O)c2O)cc1 [Kaempferide] | 6
46 | O=c1c(O)c(-c2ccccc2)oc2cc(O)ccc12 [3,7-Dihydroxyflavone] | 4
47 | O=c1cc(-c2ccc(O)c(O)c2)oc2cc(O)cc(O)c12 [Luteolin] | 6
48 | O=c1cc(-c2ccc(O)cc2)oc2cc(O)cc(O)c12 [Apigenin] | 5
49 | O=c1c(O)c(-c2ccc(O)cc2O)oc2cc(O)cc(O)c12 [Morin] | 7
50 | O=c1c(O)c(-c2ccc(O)c(O)c2)oc2cc(O)ccc12 [Fisetin] | 6
51 | O=c1c(O)c(-c2ccc(O)cc2)oc2cc(O)cc(O)c12 [Kaempferol, 3,5,7,4′-tetrahydroxyflavone] | 6
52 | O=C1c2c(O)cc(O)cc2O[C@H](c2cc(O)c(O)c(O)c2)[C@H]1O [Dihydromyricetin] | 8

Same assay, conditions: polar surface area; ref ChemSpider; cited from earlier work

Row | SMILES | PSA
53 | O=c1c(O)c(-c2ccccc2)oc2ccc(O)cc12 [3,6-Dihydroxyflavone] | 67 Å^2
54 | O=c1c(O)c(-c2ccc(O)c(O)c2)oc2cc(O)cc(O)c12 [Quercetin, reference compound] | 127 Å^2
55 | COc1cc(-c2oc3cc(O)cc(O)c3c(=O)c2O)ccc1O [Isorhamnetin] | 116 Å^2
56 | O=c1c(O)c(-c2cc(O)c(O)c(O)c2)oc2cc(O)cc(O)c12 [Myricetin] | 148 Å^2
57 | O=c1c(O)c(-c2ccccc2)oc2ccccc12 [3-Hydroxyflavone] | 47 Å^2
58 | O=C1C[C@@H](c2ccc(O)cc2)Oc2cc(O)cc(O)c21 [Naringenin] | 87 Å^2
59 | COc1ccc(-c2oc3cc(O)cc(O)c3c(=O)c2O)cc1 [Kaempferide] | 96 Å^2
60 | O=c1c(O)c(-c2ccccc2)oc2cc(O)ccc12 [3,7-Dihydroxyflavone] | 67 Å^2
61 | O=c1cc(-c2ccc(O)c(O)c2)oc2cc(O)cc(O)c12 [Luteolin] | 107 Å^2
62 | O=c1cc(-c2ccc(O)cc2)oc2cc(O)cc(O)c12 [Apigenin] | 87 Å^2
63 | O=c1c(O)c(-c2ccc(O)cc2O)oc2cc(O)cc(O)c12 [Morin] | 127 Å^2
64 | O=c1c(O)c(-c2ccc(O)c(O)c2)oc2cc(O)ccc12 [Fisetin] | 107 Å^2
65 | O=c1c(O)c(-c2ccc(O)cc2)oc2cc(O)cc(O)c12 [Kaempferol, 3,5,7,4′-tetrahydroxyflavone] | 107 Å^2
66 | O=C1c2c(O)cc(O)cc2O[C@H](c2cc(O)c(O)c(O)c2)[C@H]1O [Dihydromyricetin] | 148 Å^2

Same assay, conditions: second figure of HBA/HBD; ref ChemSpider; cited from earlier work

Row | SMILES | HBD (hydrogen bond donor number)
67 | O=c1c(O)c(-c2ccccc2)oc2ccc(O)cc12 [3,6-Dihydroxyflavone] | 2
68 | O=c1c(O)c(-c2ccc(O)c(O)c2)oc2cc(O)cc(O)c12 [Quercetin, reference compound] | 5
69 | COc1cc(-c2oc3cc(O)cc(O)c3c(=O)c2O)ccc1O [Isorhamnetin] | 4
70 | O=c1c(O)c(-c2cc(O)c(O)c(O)c2)oc2cc(O)cc(O)c12 [Myricetin] | 6
71 | O=c1c(O)c(-c2ccccc2)oc2ccccc12 [3-Hydroxyflavone] | 1
72 | O=C1C[C@@H](c2ccc(O)cc2)Oc2cc(O)cc(O)c21 [Naringenin] | 3
73 | COc1ccc(-c2oc3cc(O)cc(O)c3c(=O)c2O)cc1 [Kaempferide] | 3
74 | O=c1c(O)c(-c2ccccc2)oc2cc(O)ccc12 [3,7-Dihydroxyflavone] | 2
75 | O=c1cc(-c2ccc(O)c(O)c2)oc2cc(O)cc(O)c12 [Luteolin] | 4
76 | O=c1cc(-c2ccc(O)cc2)oc2cc(O)cc(O)c12 [Apigenin] | 3
77 | O=c1c(O)c(-c2ccc(O)cc2O)oc2cc(O)cc(O)c12 [Morin] | 5
78 | O=c1c(O)c(-c2ccc(O)c(O)c2)oc2cc(O)ccc12 [Fisetin] | 4
79 | O=c1c(O)c(-c2ccc(O)cc2)oc2cc(O)cc(O)c12 [Kaempferol, 3,5,7,4′-tetrahydroxyflavone] | 4
80 | O=C1c2c(O)cc(O)cc2O[C@H](c2cc(O)c(O)c(O)c2)[C@H]1O [Dihydromyricetin] | 6

System: HeLa cells
Experiment: Cell viability assay (WST-8)
Assay type: cell-based
Conditions: 48 h treatment, WST-8, various concentrations
Experimental: as §1
HeLa cells were seeded at a density of 3.3 × 10^3 per well in 96-well plates and incubated overnight. Cells were then treated with various concentrations of flavonoids. After 48 h incubation, 10 μL of WST-8 reagent (ab228554, Abcam, Waltham, MA, USA) was added to each well and incubated for 1 h at 37 °C. Absorbance was measured at 460 nm using a microtiter plate reader (SpectraMax iD3, Molecular Devices, LLC., San Jose, CA, USA).

Row | SMILES | cytotoxicity / cell viability of HeLa cells (in words)
81 | COc1cc(-c2oc3cc(O)cc(O)c3c(=O)c2O)ccc1O [Isorhamnetin] | minimal cytotoxicity
82 | O=c1c(O)c(-c2ccc(O)cc2O)oc2cc(O)cc(O)c12 [Morin] | slight cytotoxicity effect; also recorded: significantly reduced
83 | O=c1c(O)c(-c2ccc(O)c(O)c2)oc2cc(O)ccc12 [Fisetin] | slight cytotoxicity effect
84 | O=c1c(O)c(-c2ccc(O)cc2)oc2cc(O)cc(O)c12 [Kaempferol, 3,5,7,4′-tetrahydroxyflavone] | significant cytotoxicity; also recorded: significantly reduced; also recorded: significant cytotoxic and pro-apoptotic effects

Same assay, conditions: 48 h treatment, WST-8, various concentrations; listed as fisetin

Row | SMILES | cytotoxicity / cell viability of HeLa cells (in words)
85 | O=c1c(O)c(-c2ccc(O)c(O)c2)oc2cc(O)ccc12 [Fisetin] | significantly reduced
